Columns and labels:
[1] = target: ligand binding domain of human FXR (Homo sapiens (Human), UniProt Q96RI1); assay: FXR ligand binding assay (LanthaScreen FRET); conditions: for Emax: read-out: % Efficacy; for % Efficacy: extent of activation relative to GW4064
Procedure: The affinity of FXR ligands for the ligand binding domain of FXR was determined using a commercially available human FXR ligand binding assay (LanthaScreen, Thermofisher Cat #PV4833). […] Binding of FXR ligands to the FXR ligand binding domain promotes binding of the fluorescein-labelled SRC2-2 peptide. This causes a FRET signal between the terbium-labelled anti-GST antibody and the fluorescein-labelled SRC peptide which are both bound to the FXR ligand binding domain.
Test compounds are dissolved in DMSO and a 3-fold serial dilution series is generated, then further diluted into assay buffer. The compounds are mixed with 5 nM GST-tagged FXR ligand binding domain, 5 nM Tb-labelled anti-GST antibody and 500 nM fluorescein-labelled SRC2-2 peptide in a pH 7.4 buffer. The reaction is incubated at room temperature for 1 hour, then the FRET signal is measured as the ratio of the 520 nm/495 nm emission following excitation at 340 nm. The change in FRET signal is plotted against the test article concentration and fit to a 3-parameter logistical equation.

[2] = target: human Famesoid X receptor ligand-binding domain/Gal4 DNA binding domain chimera (Homo sapiens (Human), UniProt Q96RI1); assay: Cellular FXR beta-lactamase reporter assay (FXR-UAS-bla HEK 293T); format: cell-based; conditions: for Emax: HEK-293T, read-out: % Efficacy; for EC50: read-out: FXR pEC50 (converted); for % Efficacy: extent of activation relative to GW4064
Procedure: FXR activation was measured using a cell line and procedure obtained from Life Technologies (Cat #K1691). FXR-UAS-&/a HEK 293T cells contain a human Famesoid X receptor ligand-binding domain/Gal4 DNA binding domain chimera stably integrated into the CellSensor® UAS-bla HEK293T cell line. The CellSensor® UAS-bla HEK293T contains a beta-lactamase reporter gene under control of a UAS response element stably integrated into HEK 293T cells. Activation of FXR by bound ligands results in transcriptional activation of the beta-lactamase reporter gene, which is detected via assay of beta-lactamase activity.
Cells are harvested and diluted into assay medium containing phenol red-free DMEM supplemented with 2% Charcoal-stripped FBS, pyruvate, non-essential amino acids. Cells are then transferred to a 384 well assay plate. Test compounds are dissolved in DMSO and a 3-fold serial dilution series is generated, then further diluted into assay medium. Compounds in assay medium are added to cells in the 384 well plate and allowed to incubate 16 h at 37 C in the presence of 5% CO2.
A FRET-based […] (CCF4) is loaded into cells as its acetomethoxy ester. Intracellular esterases liberate free CCF4, a cephalosporin core linking 7-hydroxycoumarin to fluorescein. In the presence of beta-lactamase activity produced in the presence of FXR agonists, cleavage of CCF4 spatially separates the two dyes and disrupts FRET, so that exciting the coumarin at 409 nm now produces a blue fluorescence signal at 447 nm. The change in FRET signal is plotted against the test compound concentration and fit to a 3-parameter logistical equation.

[3] = system: C57BL/6 male mice fed a Western diet; assay: Western diet study; format: in vivo, C57BL/6 mice
Procedure: Six-week-old C57BL/6 male mice were fed a Western diet (WD) (62% fat/0.2% cholesterol). […] An additional control group (lean) was fed a standard rodent chow throughout the study. Body weight measurements and serum samples (tail bleed) were taken weekly. After 6 weeks of treatment, all animals were sacrificed and hepatosteatosis-related endpoints and other liver markers were measured.
Total RNA from mouse tissues was isolated and used for library preparation. Library samples were multiplexed ahead of mRNA sequencing.

[4] = system: fibroblast growth factor 19 (FGF19) secretion in human ileum; assay: Human Ileum APECCS (FGF19); format: cell-based; conditions: relative to GW4064

human Famesoid X receptor ligand-binding domain/Gal4 DNA binding domain chimera, sequence (Q96RI1 262-486, stated change not applied): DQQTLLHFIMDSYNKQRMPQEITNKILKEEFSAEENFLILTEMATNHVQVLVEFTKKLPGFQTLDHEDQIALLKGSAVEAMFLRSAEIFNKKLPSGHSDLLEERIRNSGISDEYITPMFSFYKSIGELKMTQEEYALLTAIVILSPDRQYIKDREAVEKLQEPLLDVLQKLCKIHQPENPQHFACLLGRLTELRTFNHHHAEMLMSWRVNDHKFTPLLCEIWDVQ
ligand binding domain of human FXR, sequence (Q96RI1 262-486): as the sequence (Q96RI1 262-486, stated change not applied) above

Row | Compound | Emax [1] [%] | Emax [2] [%] | EC50 [2] [nM] | further results
1 | O=C(O)c1cc(F)c2nc(N3[C@@H]4CC[C@H]3C[C@@H](OC(=O)c3c(-c5c(F)cccc5F)noc3C3CC3)C4)sc2c1 [Compound I-16, 2-[(1R,3R,5S)-3-[5-cyclopropyl-3-(2,6-difluorophenyl)-1,2-oxazole-4-carbonyloxy]-8-azabicyclo[3.2.1]octan-8-yl]-4-fluoro-1,3-benzothiazole-6-carboxylic acid] | 47 | 110 | 200 | 
2 | O=C(O)c1cc(F)c2nc(N3[C@@H]4CC[C@H]3C[C@@H](OC(=O)c3c(-c5c(Cl)cccc5OC(F)F)noc3C3CC3)C4)sc2c1 [Compound I-15, 2-[(1R,3R,5S)-3-{3-[2-chloro-6-(difluoromethoxy)phenyl]-5-cyclopropyl-1,2-oxazole-4-carbonyloxy}-8-azabicyclo[3.2.1]octan-8-yl]-4-fluoro-1,3-benzothiazole-6-carboxylic acid] | 71 | 108 | 39.8 | 
3 | O=C(O)c1ccc([C@H]2C[C@@H]2c2ccc(OCc3c(-c4c(Cl)cccc4Cl)noc3C3CC3)cc2Cl)cc1 [Px-102] |  |  |  | Activity, % (n) ([1]; Human FXR Binding (FRET), relative to GW4064): 90 ± 15 (3) %; liver Cyp7a1 gene expression [3]: downregulated; hepatosteatosis related endpoints (including liver triglycerides and liver cholesterol) ([3]; 6 weeks of treatment): normalized; macrovesicular steatosis (score) ([3]; 6 weeks of treatment): reduced; serum FGF15 concentration ([3]; 6 weeks of treatment): further increased; serum cholesterol ([3]; 6 weeks of treatment): reduced
4 | Cn1c(N2[C@@H]3CC[C@H]2C[C@@H](OC(=O)c2c(-c4c(Cl)cccc4Cl)noc2C2CC2)C3)nc2c(F)cc(C(=O)O)cc21 [Compound I-31, 2-[(1R,3R,5S)-3-[5-cyclopropyl-3-(2,6-dichlorophenyl)-1,2-oxazole-4-carbonyloxy]-8-azabicyclo[3.2.1]octan-8-yl]-4-fluoro-1-methyl-1H-1,3-benzodiazole-6-carboxylic acid] |  | 100 | 398 | 
5 | O=C(O)c1cc(F)c2nc(N3[C@@H]4CC[C@H]3C[C@@H](OC(=O)c3c(-c5ccccc5)noc3C3CC3)C4)sc2c1 [Compound I-13, 2-[(1R,3R,5S)-3-(5-Cyclopropyl-3-phenyl-1,2-oxazole-4-carbonyloxy)-8-azabicyclo[3.2.1]octan-8-yl]-4-fluoro-1,3-benzothiazole-6-carboxylic acid] | 40 | 93 | 1000 | 
6 | O=C(Cc1c(-c2c(Cl)cccc2Cl)noc1C1CC1)O[C@H]1C[C@H]2CC[C@@H](C1)N2c1nc2c(F)cc(C(=O)O)cc2s1 [Compound I-32, 2-[(1R,3R,5S)-3-({2-[5-cyclopropyl-3-(2,6-dichlorophenyl)-1,2-oxazol-4-yl]acetyl}oxy)-8-azabicyclo[3.2.1]octan-8-yl]-4-fluoro-1,3-benzothiazole-6-carboxylic acid] | 34 | 86 | 398 | 
7 | O=C(O)c1cc(F)c2nc(N3[C@@H]4CC[C@H]3C[C@@H](OC(=O)c3c(-c5ccccc5OC(F)(F)F)noc3C3CC3)C4)sc2c1 [Compound I-14, 2-[(1R,3R,5S)-3-{5-cyclopropyl-3-[2-(trifluoromethoxy)phenyl]-1,2-oxazole-4-carbonyloxy}-8-azabicyclo[3.2.1]octan-8-yl]-4-fluoro-1,3-benzothiazole-6-carboxylic acid] | 147 | 116 | 7.94 | 
8 | CC(C)(C)c1onc(-c2c(Cl)cccc2Cl)c1C(=O)OC1C[C@H]2CC[C@@H](C1)N2c1nc2c(F)cc(C(=O)O)cc2s1 (single isomer, unassigned) [Compound I-25] | 56 | 100 | 25.1 | 
9 | O=C(O)c1cc(F)c2nc(N3[C@@H]4CC[C@H]3C[C@@H](OC(=O)c3c(-c5c(Cl)cccc5Cl)noc3C3CCC3)C4)sc2c1 [Compound I-24, 2-[(1R,3R,5S)-3-[5-cyclobutyl-3-(2,6-dichlorophenyl)-1,2-oxazole-4-carbonyloxy]-8-azabicyclo[3.2.1]octan-8-yl]-4-fluoro-1,3-benzothiazole-6-carboxylic acid] | 64 | 98 | 31.6 | 
10 | O=C(O)c1cc(F)c2nc(N3[C@@H]4CC[C@H]3C[C@@H](OC(=O)c3c(-c5c(Cl)cccc5Cl)noc3C3(F)CC3)C4)sc2c1 [Compound I-27, 2-[(1R,3R,5S)-3-[3-(2,6-dichlorophenyl)-5-(1-fluorocyclopropyl)-1,2-oxazole-4-carbonyloxy]-8-azabicyclo[3.2.1]octan-8-yl]-4-fluoro-1,3-benzothiazole-6-carboxylic acid] | 107 | 108 | 3.98 | 
11 | CC(C)c1onc(-c2c(Cl)cccc2Cl)c1COc1ccc(/C=C/c2cccc(C(=O)O)c2)c(Cl)c1 [GW4064] |  |  |  | Activity, % (n) [4]: 100 ± 0 (154) %
12 | O=C(O)c1cc(F)c2nc(N3[C@@H]4CC[C@H]3C[C@@H](OC(=O)c3c(C5CCC6(CC5)CC6)noc3C3CC3)C4)sc2c1 [Compound I-19, 2-[(1R,3R,5S)-3-(5-cyclopropyl-3-{spiro[2.5]octan-6-yl}-1,2-oxazole-4-carbonyloxy)-8-azabicyclo[3.2.1]octan-8-yl]-4-fluoro-1,3-benzothiazole-6-carboxylic acid] | 55 | 79 | 158 | 
13 | CCCS(=O)(=O)NC(=O)c1ccc(N2[C@@H]3CC[C@H]2C[C@@H](OC(=O)c2c(-c4c(Cl)cccc4Cl)noc2C2CC2)C3)cc1 [Compound I-45, (1R,3R,5S)-8-{4-[(propane-1-sulfonyl)carbamoyl]phenyl}-8-azabicyclo[3.2.1]octan-3-yl 5-cyclopropyl-3-(2,6-dichlorophenyl)-1,2-oxazole-4-carboxylate] |  |  |  | % Efficacy [1]: 130%; % Efficacy [2]: 128%
14 | O=C(NS(=O)(=O)C1CC1)c1ccc(N2[C@@H]3CC[C@H]2C[C@H](OC(=O)c2c(-c4c(Cl)cccc4Cl)noc2C2CC2)C3)cc1 [Compound I-48, (1R,3S,5S)-8-{4-[(cyclopropanesulfonyl)carbamoyl]phenyl}-8-azabicyclo[3.2.1]octan-3-yl 5-cyclopropyl-3-(2,6-dichlorophenyl)-1,2-oxazole-4-carboxylate] |  |  |  | % Efficacy [2]: 130%
15 | CC1(c2onc(-c3c(Cl)cccc3Cl)c2C(=O)OC2C[C@H]3CC[C@@H](C2)N3c2nc3c(F)cc(C(=O)O)cc3s2)CC1 (single isomer, unassigned) [Compound I-26] | 75 | 106 | 31.6 | 
16 | CCCCCS(=O)(=O)NC(=O)c1ccc(N2[C@@H]3CC[C@H]2C[C@@H](OC(=O)c2c(-c4c(Cl)cccc4Cl)noc2C2CC2)C3)cc1 [Compound I-46, (1R,3R,5S)-8-{4-[(pentane-1-sulfonyl)carbamoyl]phenyl}-8-azabicyclo[3.2.1]octan-3-yl 5-cyclopropyl-3-(2,6-dichlorophenyl)-1,2-oxazole-4-carboxylate] |  |  |  | % Efficacy [1]: 146%; % Efficacy [2]: 110%
17 | O=C(O)c1cc(F)c2nc(N3[C@@H]4CC[C@H]3C[C@@H](OC(=O)c3c(C56CCC(CC5)CC6)noc3C3CC3)C4)sc2c1 [Compound I-20, 2-[(1R,3R,5S)-3-(3-{Bicyclo[2.2.2]octan-1-yl}-5-cyclopropyl-1,2-oxazole-4-carbonyloxy)-8-azabicyclo[3.2.1]octan-8-yl]-4-fluoro-1,3-benzothiazole-6-carboxylic acid] |  |  |  | % Efficacy [2]: 22%
18 | 2-[(1R,3S,5S)-3-(5-cyclopropyl-3-{4-methoxybicyclo[2.2.2]octan-1-yl}-1,2-oxazole-4-carbonyloxy)-8-azabicyclo[3.2.1]octan-8-yl]-4-(trifluoromethoxy)-1,3-benzothiazole-6-carboxylic acid [Compound I-58] |  |  |  | % Efficacy [1]: 22%; FXR pEC50 ([1]; pEC50 = −log EC50, FRET signal, SRC2-2 peptide): >4.4; FXR pEC50 ([2]; pEC50 = −log EC50, 16 h incubation): >4.5
19 | Cc1onc(-c2c(Cl)cccc2Cl)c1C(=O)O[C@H]1C[C@H]2CC[C@@H](C1)N2c1nc2c(F)cc(C(=O)O)cc2s1 [Compound I-23, 2-[(1R,3S,5S)-3-[3-(2,6-dichlorophenyl)-5-methyl-1,2-oxazole-4-carbonyloxy]-8-azabicyclo[3.2.1]octan-8-yl]-4-fluoro-1,3-benzothiazole-6-carboxylic acid] | 37 | 100 | 158 | 

From patent US11718619B2, “Isoxazolyl-carbonyloxy azabicyclo[3.2.1]octanyl compounds as FXR activators” (ARDELYX, INC., priority 2016, dated 2023)
